{"source": "patent US4472386A", "about": "“5-Fluoro-(β-uridine or 2'-deoxy-β-uridine) derivatives, a process for producing the same and a carcinostatic agent containing the same” (Toyama Chemical Co., Ltd., priority 1978, dated 1984)", "key": {"[1]": {"assay": "Acute toxicity test (b), oral LD50 (Table 4)", "settings": "mouse, in vivo; oral, 3 weeks, Van der Waerden method", "description": "(b) The test compound was suspended in 0.25% CMC solution and administered orally to SLC-ddY mice (5 weeks old, male, 6 mice per group). The number of dead mice was counted over the subsequent 3 weeks. LD50 value was calculated according to the method of Van der Waerden."}, "[2]": {"tested_on": "Ehrlich ascites carcinoma", "assay": "Inhibition of Ehrlich solid tumor in mice, oral administration starting six days after inoculation (Table 2)", "type": "in vivo, ddY mice", "description": "(§1) 1. Experiment on the inhibition of Ehrlich solid tumor\nEhrlich ascites carcinoma was subcutaneously inoculated into the inguinal region of ddY mice (5 weeks old, male, 8 mice per group) with 3×10^6 cells per mouse. Six days after the inoculation, a test drug dissolved or suspended in 0.5% CMC solution was administered orally to the test group successively once daily for 10 days, while the same quantity as above of 0.5% CMC solution was orally administered to the control group. Twenty one days after the inoculation, the tumor was excised and weighed, from which the average tumor weight ratio between the test group and the control group (T/C) was determined."}, "[3]": {"settings": "cited from earlier work"}, "[4]": {"settings": "C. Heidelberger et al. (1958); cited from earlier work"}, "nucleotide-phosphorylase": {"tested_on": "nucleotide-phosphorylase", "settings": "G. D. Birnie (1963); cited from earlier work"}, "[5]": {"tested_on": "Ehrlich ascites carcinoma", "assay": "Carcinostatic test, oral, ED values (Table 5)", "type": "in vivo, ddY mice", "settings": "Mus musculus, 336 h, oral once daily for 10 days, least square method", "description": "Ehrlich ascites carcinoma was subcutaneously inoculated into the right inguinal region of ddY mice (5 weeks old, male, 8 mice per group) with 8×10^6 cells per mouse. Twenty four hours after the inoculation,5, 10, 20 or 40 mg/kg of a test drug suspended or dissolved in polyethylene glycol was administered orally to the test group successively once daily for 10 days, while the same quantity as above of 10% polyethylene glycol was administered orally to the control group. Fourteen days after the inoculation, the tumor was excised and weighed, from which the average tumor weight ratio between the test group and the control group (T/C) was calculated. ED value was determined by the least square method."}, "[6]": {"tested_on": "Sarcoma-180 ascites tumor", "assay": "Inhibition of Sarcoma-180 ascites tumor in mice, intravenous administration (Table 3)", "type": "in vivo, ddY mice", "settings": "10 mg/kg i.v. once daily for 7 days", "description": "2. Experiment on the inhibition of Sarcoma-180 ascites tumor\nSarcoma-180 ascites tumor was subcutaneously inoculated into the right inguinal region of ddY mice (5 weeks old, male, 8 mice per group) with 3×10^6 cells per mouse. Twenty four hours after the inoculation,a test drug dissolved in 10% polyethylene glycol was administered intravenously to the test group successively once daily for 7 days, while the same quantity as above of 10% polyethylene glycol was intravenously administered to the control group. Ten days after the inoculation, the tumor was excised and weighed, from which the average tumor weight ratio between the test group and the control group (T/C) was determined."}, "[7]": {"tested_on": "Ehrlich ascites carcinoma", "assay": "Inhibition of Ehrlich solid tumor in mice, intraperitoneal administration (Table 1)", "type": "in vivo, ddY mice", "description": "as §1\nEhrlich ascites carcinoma was subcutaneously inoculated into the right inguinal region of ddY mice (5 weeks old, male, 8 mice per group) with 3×10^6 cells per mouse.\n24 Hours after the inoculation, a test drug suspended or dissolved in 5% HCO 60 (a product manufactured by Nikkol) was administered intraperitoneally successively once daily for 7 days. To the control group, the same quantity as above of 5% HCO 60 was intraperitoneally administered in the same manner. Fourteen days after the inoculation, the tumor was excised and weighed, from which the average tumor weight ratio between the test group and the control group (T/C) was determined."}, "[8]": {"settings": "C. Heidelberger et al. (1958); cited from earlier work", "remark": "listed apart in the source"}, "[9]": {"settings": "60 mg/kg orally once daily for 10 days"}, "[10]": {"settings": "40 mg/kg i.p. once daily for 7 days"}}, "data": [{"smiles": "O=c1[nH]c(=O)n([C@H]2C[C@H](O)[C@@H](CO)O2)cc1F", "note": "[FUDR, 5-fluoro-2'-deoxy-β-uridine, reference compound]", "values": [{"measurement": "LD50 at 504 h", "setting": "[1]", "result": 1330, "unit": "mg/kg"}, {"measurement": "Body weight change", "setting": "[2]; [9]", "result": -2.7, "unit": "g"}, {"measurement": "No. of surviving mice/No. of total mice used", "setting": "[2]; [9]", "result": "8/8"}, {"measurement": "T/C (average tumor weight ratio between test group and control group)", "setting": "[2]; 60 mg/kg orally once daily for 10 days from day 6, Ehrlich, day 21", "result": 48.6, "unit": "%"}, {"measurement": "persistency in vivo", "setting": "[3]", "result": "lacks persistency"}, {"measurement": "excretion", "setting": "[3]; in vivo", "result": "excreted rapidly"}, {"measurement": "carcinostatic activity in vitro", "setting": "[4]", "result": "intense carcinostatic activity in vitro"}, {"measurement": "decomposition by nucleotide-phosphorylase to yield 5-fluorouracil", "setting": "nucleotide-phosphorylase", "result": "readily decomposed by nucleotide-phosphorylase"}, {"measurement": "ED30", "setting": "[5]; read-out: ED30", "result": 19, "unit": "mg/kg"}, {"measurement": "ED40", "setting": "[5]; read-out: ED40", "result": 24, "unit": "mg/kg"}, {"measurement": "Body weight change", "setting": "[6]", "result": "+3.9 g"}, {"measurement": "No. of surviving mice/No. of total mice used", "setting": "[6]", "result": "8/8"}, {"measurement": "T/C (average tumor weight ratio between test group and control group)", "setting": "[6]; Sarcoma-180, day 10", "result": 56.3, "unit": "%"}, {"measurement": "Body weight change", "setting": "[7]; [10]", "result": "+6.5 g"}, {"measurement": "No. of surviving mice/No. of total mice used", "setting": "[7]; [10]", "result": "8/8"}, {"measurement": "response vs control in vivo at 40 mg/kg", "setting": "[7]; Mus musculus, Ehrlich, ip, 336 h, read-out: T/C (average tumor weight ratio between test group and control group)", "result": 47.1, "unit": "%"}, {"measurement": "toxicity", "setting": "[8]", "result": "low toxicity"}]}]}
